Data taken from patent US11427549B2, “Pyrimidinyloxy benzo-fused compounds as herbicides” (FMC Corporation, priority 2017, dated 2022).

Tests used:
[1] = test system: barnyardgrass (Echinochloa crus-galli); assay: Test A preemergence, barnyardgrass; format: in vivo; conditions: Echinochloa crus-galli, pre-emergence, 240 h, 0 to 100 scale (0 no effect, 100 complete control), read-out: Plant response rating, Barnyardgrass; for pest or weed control at 31 g/ha: 31 g ai/ha; for pest or weed control at 125 g/ha: 125 g ai/ha
kochia (Kochia scoparia) [2] = assay: Test A preemergence, kochia; format: in vivo; conditions: Bassia scoparia, pre-emergence, 240 h, 0 to 100 scale (0 no effect, 100 complete control), read-out: Plant response rating, Kochia; for pest or weed control at 31 g/ha: 31 g ai/ha; for pest or weed control at 125 g/ha: 125 g ai/ha
[3] = test system: ragweed (common ragweed, Ambrosia elatior); assay: Test A preemergence, ragweed; format: in vivo; conditions: Ambrosia artemisiifolia, pre-emergence, 240 h, 0 to 100 scale (0 no effect, 100 complete control), read-out: Plant response rating, Ragweed; for pest or weed control at 125 g/ha: 125 g ai/ha; for pest or weed control at 31 g/ha: 31 g ai/ha
[4] = test system: ryegrass, Italian (Italian ryegrass, Lolium multiflorum); assay: Test A preemergence, ryegrass, Italian; format: in vivo; conditions: Lolium multiflorum, pre-emergence, 240 h, 0 to 100 scale (0 no effect, 100 complete control), read-out: Plant response rating, Ryegrass, Italian; for pest or weed control at 31 g/ha: 31 g ai/ha; for pest or weed control at 125 g/ha: 125 g ai/ha
[5] = test system: pigweed (Amaranthus retroflexus); assay: Test A preemergence, pigweed; format: in vivo; conditions: Amaranthus retroflexus, pre-emergence, 240 h, 0 to 100 scale (0 no effect, 100 complete control), read-out: Plant response rating, Pigweed; for pest or weed control at 31 g/ha: 31 g ai/ha; for pest or weed control at 125 g/ha: 125 g ai/ha
[6] = test system: barnyardgrass (Echinochloa crus-galli); assay: Test A postemergence, barnyardgrass; format: in vivo; conditions: Echinochloa crus-galli, post-emergence, 240 h, 0 to 100 scale (0 no effect, 100 complete control), read-out: Plant response rating, Barnyardgrass; for pest or weed control at 31 g/ha: 31 g ai/ha; for pest or weed control at 125 g/ha: 125 g ai/ha
kochia (Kochia scoparia) [7] = assay: Test A postemergence, kochia; format: in vivo; conditions: Bassia scoparia, post-emergence, 240 h, 0 to 100 scale (0 no effect, 100 complete control), read-out: Plant response rating, Kochia; for pest or weed control at 31 g/ha: 31 g ai/ha; for pest or weed control at 125 g/ha: 125 g ai/ha
[8] = test system: ragweed (common ragweed, Ambrosia elatior); assay: Test A postemergence, ragweed; format: in vivo; conditions: Ambrosia artemisiifolia, post-emergence, 240 h, 0 to 100 scale (0 no effect, 100 complete control), read-out: Plant response rating, Ragweed; for pest or weed control at 31 g/ha: 31 g ai/ha; for pest or weed control at 125 g/ha: 125 g ai/ha
[9] = test system: ryegrass, Italian (Italian ryegrass, Lolium multiflorum); assay: Test A postemergence, ryegrass, Italian; format: in vivo; conditions: Lolium multiflorum, post-emergence, 240 h, 0 to 100 scale (0 no effect, 100 complete control), read-out: Plant response rating, Ryegrass, Italian; for pest or weed control at 31 g/ha: 31 g ai/ha; for pest or weed control at 125 g/ha: 125 g ai/ha
[10] = test system: pigweed (Amaranthus retroflexus); assay: Test A postemergence, pigweed; format: in vivo; conditions: Amaranthus retroflexus, post-emergence, 240 h, 0 to 100 scale (0 no effect, 100 complete control), read-out: Plant response rating, Pigweed; for pest or weed control at 31 g/ha: 31 g ai/ha; for pest or weed control at 125 g/ha: 125 g ai/ha
[11] = test system: wheat (Triticum aestivum); assay: Test A postemergence, wheat; format: in vivo; conditions: Triticum aestivum, post-emergence, 240 h, 0 to 100 scale (0 no effect, 100 complete control), read-out: Plant response rating, Wheat; for plant injury at 31 g/ha: 31 g ai/ha; for plant injury at 125 g/ha: 125 g ai/ha
corn (Zea mays) = assay: Test A postemergence, corn; format: in vivo; conditions: Zea mays, post-emergence, 240 h, 0 to 100 scale (0 no effect, 100 complete control); for Corn plant response rating (crop injury, 0 = no effect, 100 = complete kill) at 31 g/ha: 31 g ai/ha; for Corn plant response rating (crop injury, 0 = no effect, 100 = complete kill) at 125 g/ha: 125 g ai/ha
[12] = test system: blackgrass (Alopecurus myosuroides); assay: Test A postemergence, blackgrass; format: in vivo; conditions: Alopecurus myosuroides, post-emergence, 240 h, 0 to 100 scale (0 no effect, 100 complete control), read-out: Plant response rating, Blackgrass; for pest or weed control at 31 g/ha: 31 g ai/ha; for pest or weed control at 125 g/ha: 125 g ai/ha
[13] = test system: galium (catchweed bedstraw, Galium aparine); assay: Test A postemergence, galium; format: in vivo; conditions: Galium, post-emergence, 240 h, 0 to 100 scale (0 no effect, 100 complete control), read-out: Plant response rating, Galium; for pest or weed control at 31 g/ha: 31 g ai/ha; for pest or weed control at 125 g/ha: 125 g ai/ha
rice (Oryza sativa) = assay: Test B flooded paddy test, rice; conditions: Oryza sativa, read-out: Plant response rating, Rice (0 to 100 scale, 0 is no effect, 100 is complete control)
[14] = test system: ducksalad (Heteranthera limosa); assay: Test B flooded paddy test, ducksalad; conditions: Heteranthera limosa, read-out: Plant response rating, Ducksalad (0 to 100 scale, 0 is no effect, 100 is complete control)
[15] = test system: barnyardgrass (Echinochloa crus-galli); assay: Test B flooded paddy test, barnyardgrass; conditions: Echinochloa crus-galli, read-out: Plant response rating, Barnyardgrass (0 to 100 scale, 0 is no effect, 100 is complete control)

Row | SMILES | pest or weed control at 31 g/ha [1] [%] | pest or weed control at 125 g/ha [1] [%] | pest or weed control at 31 g/ha (kochia (Kochia scoparia) [2]) [%] | pest or weed control at 125 g/ha (kochia (Kochia scoparia) [2]) [%] | pest or weed control at 125 g/ha [3] [%] | pest or weed control at 31 g/ha [4] [%] | pest or weed control at 125 g/ha [4] [%] | pest or weed control at 31 g/ha [5] [%] | pest or weed control at 125 g/ha [5] [%] | pest or weed control at 31 g/ha [6] [%] | pest or weed control at 125 g/ha [6] [%] | pest or weed control at 31 g/ha (kochia (Kochia scoparia) [7]) [%] | pest or weed control at 125 g/ha (kochia (Kochia scoparia) [7]) [%] | pest or weed control at 31 g/ha [8] [%] | pest or weed control at 125 g/ha [8] [%] | pest or weed control at 31 g/ha [9] [%] | pest or weed control at 125 g/ha [9] [%] | pest or weed control at 31 g/ha [10] [%] | pest or weed control at 125 g/ha [10] [%] | plant injury at 31 g/ha [11] [%] | also measured
1 | O=C1c2cccc(Oc3ncc(Cl)cn3)c2C1CCC(F)(F)F (centres unmarked) [Compound 24, 2-[(5-Chloro-2-pyrimidinyl)oxy]-8-(3,3,3-trifluoropropyl)bicyclo[4.2.0]octa-1,3,5-trien-7-one] | 0 | 50 | 20 | 60 | 0 | 0 | 10 | 0 | 30 | 20 | 70 | 20 | 50 | 0 | 20 | 0 | 20 | 20 | 70 | 0 | plant injury at 125 g/ha [11]: 0%; Corn plant response rating (crop injury, 0 = no effect, 100 = complete kill) at 31 g/ha (corn (Zea mays)): 10%; Corn plant response rating (crop injury, 0 = no effect, 100 = complete kill) at 125 g/ha (corn (Zea mays)): 20%; pest or weed control at 31 g/ha [12]: 30%; pest or weed control at 125 g/ha [12]: 80%; pest or weed control at 31 g/ha [13]: 20%; pest or weed control at 125 g/ha [13]: 80%; plant injury at 250 g/ha (rice (Oryza sativa)): 0%; pest or weed control at 250 g/ha [14]: 90%; pest or weed control at 250 g/ha [15]: 25%
2 | O=C1OCC(CCC(F)(F)F)c2c(Oc3ncc(Cl)cn3)cccc21 (centres unmarked) [Compound 25, 5-[(5-Chloro-2-pyrimidinyl)oxy]-3,4-dihydro-4-(3,3,3-trifluoropropyl)-1H-2-benzopyran-1-one] | 0 | 30 | 0 | 70 | 0 | 0 | 0 | 10 | 100 | 0 | 10 | 30 | 60 | 0 | 30 | 0 | 0 | 30 | 50 | 0 | pest or weed control at 31 g/ha [3]: 0%; plant injury at 125 g/ha [11]: 10%; Corn plant response rating (crop injury, 0 = no effect, 100 = complete kill) at 31 g/ha (corn (Zea mays)): 20%; Corn plant response rating (crop injury, 0 = no effect, 100 = complete kill) at 125 g/ha (corn (Zea mays)): 20%; pest or weed control at 31 g/ha [12]: 20%; pest or weed control at 125 g/ha [12]: 60%; pest or weed control at 31 g/ha [13]: 30%; pest or weed control at 125 g/ha [13]: 40%; plant injury at 250 g/ha (rice (Oryza sativa)): 0%; pest or weed control at 250 g/ha [14]: 0%; pest or weed control at 250 g/ha [15]: 0%
3 | FC(F)(F)CCCC1OCCc2cccc(Oc3ncc(Cl)cn3)c21 (centres unmarked) [Compound 27, 5-Chloro-2-[[3,4-dihydro-1-(4,4,4-trifluorobutyl)-1H-2-benzopyran-8-yl]oxy]pyrimidine] | 10 | 80 | 0 | 0 | 0 | 0 | 20 | 30 | 50 | 20 | 30 | 10 | 10 | 0 | 10 | 10 | 40 | 50 | 70 | 0 | pest or weed control at 31 g/ha [3]: 0%; plant injury at 125 g/ha [11]: 10%; Corn plant response rating (crop injury, 0 = no effect, 100 = complete kill) at 31 g/ha (corn (Zea mays)): 20%; Corn plant response rating (crop injury, 0 = no effect, 100 = complete kill) at 125 g/ha (corn (Zea mays)): 30%; pest or weed control at 31 g/ha [12]: 20%; pest or weed control at 125 g/ha [12]: 40%; pest or weed control at 31 g/ha [13]: 40%; pest or weed control at 125 g/ha [13]: 80%; plant injury at 250 g/ha (rice (Oryza sativa)): 0%; pest or weed control at 250 g/ha [14]: 95%; pest or weed control at 250 g/ha [15]: 0%
